Consider 1 molecule from US20130245061A1, “PHARMACEUTICAL COMPOSITIONS” (NOVARTIS AG, priority 2010, published 2013).

Data set [1] can be described thus: pH-dependent solubility of the therapeutic compound. The format is physicochemical. The conditions noted are these: pH higher than 3.
Data set [2] in a line: permeability of the therapeutic compound. The format is in vitro ADME.
Data set [3] is described as follows: 2-Step Dissolution Test (pH 2 then pH 6.8). In kind it is physicochemical. The conditions noted are these: pH 6.8, second step; FIG. 2. How it is done:
Capsules containing either Compound A alone, Formulation Variant 1 or Variant 2 are placed in 900 mL of pH 2 HCl and then stirred in a USP Apparatus II rotating at 50 rpm for 10 to 100 minutes (with fast stir from about minute 60 to minute 90). At approximately the 100 minute time point, this medium is adjusted to pH 6.8 and to a volume of 1000 ml and then stirred in a USP Apparatus II rotating at 50 rpm. Samples are filtered using a 100 μm Varian full flow filter and analyzed by UV.
Capsules containing either Compound A alone, Formulation Variants 1 or 2 are separately evaluated using a 2-Step Dissolution Test. This analysis compared the dissolution profile of capsules containing 68.5 mg per unit of 2-methyl-2-[4-(3-methyl-2-oxo-8-quinolin-3-yl-2,3-dihydro-imidazo[4,5-c]quinolin-1-yl)-phenyl]-propionitrile monotosylate salt (which is equivalent to 50 mg of the free base of 2-methyl-2-[4-(3-methyl-2-oxo-8-quinolin-3-yl-2,3-dihydro-imidazo[4,5-c]quinolin-1-yl)-phenyl]-propionitrile) at pH 2 and pH 6.8.
For this analysis, capsules containing either Compound A alone, Formulation Variant 1 or Variant 2 are placed in 900 mL of pH 2 HCl and then stirred in a USP Apparatus II rotating at 50 rpm for 10-100 minutes (with fast stir from about minute 60 to minute 90). […] Samples are filtered using a 100 μm Varian Full Flow filter and analyzed by HPLC.

Regarding `Cn1c(=O)n(-c2ccc(C(C)(C)C#N)cc2)c2c3cc(-c4cnc5ccccc5c4)ccc3ncc21` [Compound A, 2-methyl-2-[4-(3-methyl-2-oxo-8-quinolin-3-yl-2,3-dihydro-imidazo[4,5-c]quinolin-1-yl)-phenyl]-propionitrile], the solubility entry in data set [1] is “approximately 0%”. Besides, the permeability entry in data set [2] is recorded as “low”. Also, the drug release entry in data set [3] is “approximately 0%”.
